Reference: PubChem BioAssay AID1845219 (Molecular Pharmacology Branch, DTP, NCI, 2023)
Several values for one entry are separate records, joined by “and”; a condition that tells them apart may be missing. Equal entries are not always repeated.

Test system: SYO-1 tumor spheroids, viability % test/control
Assay: Anticancer human tumor SYO-1 cell line growth inhibition;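 also: spheroids exposed to agents for 7 days before viability read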;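 as to viability, T/C: 100% = DMSO vehicle control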
Settings: spheroids with HUVEC and MSC; for viability, T/C: stronger effect = lower value
Description: Multicellular complex tumor spheroid response to DNA repair inhibitors in combination with DNA-damaging drugs
This study explores the anticancer activities of DNA-damaging drugs and inhibitors of DNA damage repair, both as single agents and in combinations. Complex tumor spheroids comprised of malignant cells, endothelial cells and mesenchymal stem cells served as an in vitro model for human solid tumors. This model system incorporates physiologically relevant features and patient-derived or established malignant cell lines with clinically relevant genetic alterations from many tumor types. Twenty-six patient-derived or established malignant cell lines were evaluated representing sarcoma, melanoma, small cell lung cancer (SCLC), non-small cell lung cancer (NSCLC), as well as bladder, ovarian and pancreatic cancers. The concentration ranges selected for each drug and investigational agent were based upon clinically achievable concentrations if the clinical Cmax of the agent was known.
Compounds. The drugs and compounds olaparib (NSC753686), talazoparib (NSC767125), berzosertib (NSC777718), elimusertib (NSC800525), nedisertib (NSC802822), VX-984 (NSC792969), AZD-1390 (NSC803789), temozolomide (NSC362856), topotecan (NSC609699), trabectedin (NSC813783), staurosporine (NSC755774), and gemcitabine (NSC613327) were obtained from the National Cancer Institute (NCI) Developmental Therapeutics Program Chemical Repository. The FDA-approved anticancer drug set is available from the Developmental Therapeutics Program at https://dtp.cancer.gov/organization/dscb/obtaining/available_plates.htm. […] The stock solutions were prepared in dimethyl sulfoxide (DMSO, Sigma-Aldrich, St. Louis, MO, cat. D2650) at 400-fold the tested concentration and stored at -70 degrees C. Prior to their use, the stock solutions were diluted in fresh medium and the final DMSO concentration in the assay was 0.25% (v/v). All drugs and investigational agents were tested over a range starting from a high concentration at or near the clinical Cmax and decreasing in half-log increments. If the clinical Cmax for an agent had not been determined, the highest concentration tested was 10 microM.
Cell Lines. The patient-derived cancer cell (PDC) lines: 156681-154-R-J1-PDC, 283228-195-R-J1-PDC, 287954-098-R-J1-PDC, 292921-168-R-J2-PDC, 349418-098-R-PDC, 425362-245-T-J1-PDC, 556581-035-R-J1-PDC, and BL0293-F563-PDC were received from the NCI Patient-Derived Models Repository (PDMR, https://pdmr.cancer.gov). The established cell lines HS-SY-2 (RRID:CVCL_8719), MPNST, and SYO-1 (RRID:CVCL_7146) were obtained from the Sloan Kettering Institute. The alveolar soft parts sarcoma cell line ASPS-1 (RRID:CVCL_S738) was established at the NCI and grown from internal seed stocks. The following established cell lines were purchased from the American Type Culture Collection (ATCC, Manassas, VA): G-401 (ATCC, cat. CRL-1441, RRID:CVCL_0270), SW982 (ATCC, cat. HTB-93, RRID:CVCL_1734), VA-ES-BJ (ATCC, cat. CRL-2138, RRID:CVCL_1785), NCI-H719 (ATCC, cat. CRL-5837, RRID:CVCL_1582), NCI-H196 (ATCC, cat. CRL-5823, RRID:CVCL_1509), NCI-H841 (ATCC, cat. CRL-5845, RRID:CVCL_1595), NCI-H1618 (ATCC, cat. CRL-5879, RRID:CVCL_1480), NCI-H1876 (ATCC, cat. CRL-5902, RRID:CVCL_1503), DMS 114 (ATCC, cat. CRL-2066; RRID:CVCL_1174), NCI-H211 (ATCC, cat. CRL-5824; RRID:CVCL_1529), and SW 1271 (ATCC, cat. CRL-2177, RRID:CVCL_1716). The small cell lung cancer cell line COR-L88 was purchased from Sigma-Aldrich (cat. 92031917-1VL, RRID:CVCL_1141). The non-small cell lung cancer cell lines NCI-H226 (RRID:CVCL_1544) and NCI-H322M (RRID:CVCL_1557) were established at the NCI and grown from internal seed stocks. Pooled donor human umbilical vein endothelial cells (HUVEC, Lonza, cat. CC-2519) and human mesenchymal stem cells (hMSC, Lonza, cat. PT-2501) were purchased from Lonza (Walkersville, MD).
Cell Culture. All cells were maintained in an incubator at 37 degrees C and 5% CO2 with 95% humidity. […]

[1] = compound alone, run of 12/02/2019
[2] = compound alone, run of 12/12/2019

Structure (SMILES)	viability, T/C (compound 0.0316 µM)	viability, T/C (compound 0.1 µM)	viability, T/C (compound 0.316 µM)	viability, T/C (compound 1 µM)	viability, T/C (compound 3.16 µM)	viability, T/C (compound 10 µM)	IC50 (curve of compound)	viability, T/C (compound 0.03 µM)	viability, T/C (compound 0.0949 µM)	viability, T/C (compound 0.3 µM)	viability, T/C (compound 0.949 µM)	viability, T/C (compound 3 µM)	further results
CC(C)n1c(=O)n(C)c2cnc3cc(F)c(-c4ccc(OCCCN5CCCCC5)nc4)cc3c21	105% and 101% and 96.7%	103% and 101% and 98.9%	84.4% and 102% and 93.8%	103% and 102% and 104%	107% and 103% and 104%	64.1% and 48% and 48.3%	> 10000 nM and 9600 nM and 9620 nM						
CC1COCCN1c1cc(-c2ccnn2C)c2ccnc(-c3ccn[nH]3)c2n1 (stereo not given)		3.02% and 9.27% and 5.04%	1.96% and 2.61% and 2.62%	1.13% and 1.61% and 1.44%	0.59% and 0.92% and 0.71%	0.6% and 0.99% and 0.58%	< 31.6 nM and 32.1 nM						
CC[C@@]1(O)C(=O)OCc2c1cc1n(c2=O)Cc2cc3c(CN(C)C)c(O)ccc3nc2-1								1.67% [middle of 10 runs]	1.54% [middle of 10 runs]	1.88% [middle of 10 runs]			viability, T/C (compound 0.003 µM): 92.2% [middle of 10 runs]; IC50 [1]: 5.58 nM [middle of 5 runs]; IC50 [2]: 6.49 nM [middle of 5 runs]
CNCc1ccc(-c2cc(-c3nc(-c4ccc(S(=O)(=O)C(C)C)cc4)cnc3N)on2)cc1							138 nM and 159 nM and 161 nM	101% and 99.2% and 99%	72.5% and 86.8% and 89.3%	3.37% and 4.34% and 3.43%	0.29% and 0.76% and 0.36%	0.18% and 0.19% (2×)	viability, T/C (compound 0.00949 µM): 101% and 100% and 109%
COc1cc(C)[nH]c(=O)c1CN1CCc2c(Cl)cc(C(OC)C3COC3)c(Cl)c2C1=O (stereo not given)	114% and 106% (2×)	110% and 115% and 112%	95.1% and 101% and 106%	78.1% and 82.5% and 90.5%	67.7% and 80% and 82.7%	59.9% and 73.2% and 75.6%	> 10000 nM						
COc1cc2c(cc1O)CCNC21CSC2c3c(OC(C)=O)c(C)c4c(c3C(COC1=O)N1C(O)C3Cc5cc(C)c(OC)c(O)c5C(C21)N3C)OCO4 (stereo not given)													viability, T/C (compound 30 pM): 97.6% [middle of 10 runs]; viability, T/C (compound 0.0003 µM): 14.7% [middle of 10 runs]; viability, T/C (compound 0.000949 µM): 1.05% [middle of 10 runs]; viability, T/C (compound 0.003 µM): 0.12% [middle of 7 runs]; IC50 [2]: 0.179 nM [middle of 9 runs]
COc1ccc([C@@H](O)c2cc(-c3ncnc4cc(N5CCOCC5)ccc34)c(F)cc2Cl)nn1	109% and 108% and 104%	108% and 107% and 101%	104% and 106% and 103%	105% and 101% and 102%	66.1% (2×) and 84.2%	7.28% and 14.2% and 20.4%	4310 nM and 4520 nM and 5860 nM						
Cc1cc(C)c(CNC(=O)c2cc(-c3ccc(CN4CCOCC4)cc3)cc3c2cnn3C2CCCC2)c(=O)[nH]1	106% and 109% and 103%	106% and 109% and 100%	108% and 97.8% and 99.2%	107% and 104% and 103%	112% and 104% (2×)	106% and 67% and 88.7%	> 10000 nM						
Cc1sc2c(c1C)C(c1ccc(Cl)cc1)=NC(CC(=O)Nc1ccc(O)cc1)c1nnc(C)n1-2 (stereo not given)							66.5 nM and 93.4 nM and 105 nM	90.7% and 90.8% and 85.5%	31.8% and 49.4% and 54.7%	1.04% and 3.66% and 1.07%	0.73% and 0.9% and 0.49%	0.63% and 0.72% and 0.4%	viability, T/C (compound 0.00949 µM): 93.8% and 91.9% and 91.3%
Cn1ncnc1[C@H]1c2n[nH]c(=O)c3cc(F)cc(c23)N[C@@H]1c1ccc(F)cc1							19 nM and 17.4 nM and 17.7 nM	29.5% and 23.3% and 18.3%	4.75% and 5.28% and 5.09%	2.61% and 2.85% and 2.82%	1.54% and 2.38% and 1.48%	1.36% and 1.92% and 1.26%	viability, T/C (compound 0.00949 µM): 81.1% and 79.7% and 87.3%
Cn1nnc2c(C(N)=O)ncn2c1=O				102% [middle of 9 runs]	98.2% [middle of 10 runs]	100% [middle of 10 runs]							viability, T/C (compound 31.6 µM): 106% [middle of 10 runs]; IC50 [1]: > 100000 nM and 88300 nM
O=C(c1cc(Cc2n[nH]c(=O)c3ccccc23)ccc1F)N1CCN(C(=O)C2CC2)CC1							1760 nM and 2160 nM and 1750 nM		102% (2×) and 103%	100% and 103% and 99.2%	90.7% and 93.7% and 94.1%	14.7% and 32.7% and 11%	viability, T/C (compound 9.49 µM): 3.59% and 3.04% and 2.51%; viability, T/C (compound 30 µM): 2.83% and 2.91% and 2.43%
[2H]c1nc(C)nc([2H])c1-c1cc(NC[C@@H](C)c2cccc3c(C(=O)NC)ccnc23)ncn1	107% and 105% and 96.2%	105% and 104% and 102%	105% (2×) and 102%	105% and 99% and 98.5%	104% (2×) and 96.3%	100% and 95.5% and 101%	> 10000 nM						
